Experimental data reported in patent EP0103895A2, “Novel hydroxylamine derivatives, production and use thereof” (MEIJI SEIKA KABUSHIKI KAISHA, priority 1982, dated 1984).
Several values for one entry are separate records, joined by “and”; a condition that tells them apart may be missing. Equal entries are not always repeated. Where two headings read alike, the source gives them in different places.

What was measured:
[1] = test system: fowl roundworm (As. galli); assay: Anthelmintic test in chickens artificially infected with fowl roundworm, compound added to feed, E.P.G. and worm count up to 21st day (Test Examples A2, B2, C2, D2); type: in vivo, Ascaridia galli; details: Ascaridia galli, 504 h, read-out: Anthelmintic effect
[2] = test system: canine whipworm (Trichuris vulpis); assay: Anthelmintic test in naturally infected dogs with mixed infections, E.P.G. on 7th day: canine whipworm (Test Examples A3, B3, C3, D3); type: in vivo
Method: (§1) Three dogs with mixed infections by canine whipworm (Trichuris vulpis), canine hookworm (Ancylostoma caninum) and canine roundworm (Toxocara canis) (naturally infected dogs) were employed in a group of two and a group of one.
(§2) The compound provided for the test was Compound No.Al, and 20 mg/Kg thereof was placed in a gelatin capsule per 1 Kg of body weight, and administered orally to the two dogs. As control, only a gelatin capsule was administered orally to the one dog.
(§3) Before administration and on the 7th day after administration, fecal matter testing was conducted to calculate the E.P.G., and the anthelmintic effect was judged by the changing of the E.P.G. to negative.
(§4) As control, only gelatin capsules were administered orally to the one dog.
(§5) The same method as in Test Example A3, but the compound provided for the test was Compound No. Cl. 30 mg/Kg of this compound was placed in a gelatin capsule per 1 Kg of body weight and administered orally to the two dogs. As control, only gelatin capsules were administered orally to the one dog.

[3] = test system: canine hookworm (Ancylostoma caninum); assay: Anthelmintic test in naturally infected dogs with mixed infections, E.P.G. on 7th day: canine hookworm (Test Examples A3, B3, C3, D3); type: in vivo; details: dogs, 20 mg/Kg orally once, one value per dog
Method: as §1, §2, §3, §4, §5

[4] = test system: canine roundworm (Toxocara canis); assay: Anthelmintic test in naturally infected dogs with mixed infections, E.P.G. on 7th day: canine roundworm (Test Examples A3, B3, C3, D3); type: in vivo; details: dogs, 20 mg/Kg orally once, one value per dog
Method: as §1, §2, §3, §4, §5

[5] = test system: canine strongyloides (Strongyloides stercoralis); assay: Anthelmintic test against canine strongyloides in naturally infected dogs, E.P.G. on 7th day (Test Examples A4, B4, C4, D4); type: in vivo
Method: Three dogs infected with canine strongyloides (naturally infected dogs) were employed by grouping them into a group of two and a group of one.
As control, only a gelatin capsule was administered orally to the one dog.
as §3, §4, §4

[6] = test system: Trichostrongylidae (Trichostrongylus colubriformis); assay: Anthelmintic test against sheep Trichostrongylidae in naturally infected sheep, E.P.G. on 7th day (Test Examples A7, B7, C7, D7); type: in vivo; details: for anthelmintic effect: one administration of 15 mg/Kg
Method: Two sheep infected with Trichostrongylidae (naturally infected sheep) were employed.
The compound provided for the test was Compound No. Al, 15 mg of which was placed in a gelatin capsule per 1 Kg of body weight and administered orally to one of the sheep. As a control, only gelatin capsules were administered orally to the other sheep.
as §3
As control, only gelatin capsules were administered orally to the other sheep.
As control, only gelatin capsule was administered orally to the other sheep.

[7] = test system: swine roundworm (Ascaris suum); assay: Test of anthelmintic effect in naturally infected pigs, E.P.G. on 7th day: swine roundworm (Test Examples A9, B9, C9, D9); type: in vivo
Method: (§6) Six pigs infected with swine roundworm and swine whipworm (naturally infected pigs) were employed in groups each of two pigs.
(§7) As a control, only gelatin capsules were administered orally to the two pigs.
(§8) Before administration and on the 7th day after. administration, fecal matter testing was conducted to calculate the E.P.G., and the anthelmintic effect was judged by the changing of the E.P.G. to negative'.
(§9) 50 mg of each compound was placed in a gelatin capsule per 1 Kg of body weight and administered orally to each of the two pigs. As control, only gelatin capsules were administered orally to two pigs.
(§10) 30 mg of each compound was placed in a gelatin capsule per 1 Kg of body weight and administered orally to each of the two pigs. As control, only gelatin capsules were administered orally to two pigs.

[8] = test system: swine whipworm (Trichuris suis); assay: Test of anthelmintic effect in naturally infected pigs, E.P.G. on 7th day: swine whipworm (Test Examples A9, B9, C9, D9); type: in vivo; details: pigs, 20 mg/Kg orally once, one value per pig
Method: as §6, §7, §8, §9, §10

[9] = test system: canine filaria; Dirofilaria immitis; assay: Test of anthelmintic effect against canine filaria in naturally infected dogs, subcutaneous injection, microfilaria in blood and adult filaria at autopsy (Test Examples A10, B10, C10, D10); type: in vivo
[10] = test system: Liver fluke; Fasciola hepatica (F. hepatica); assay: Test of anthelmintic effect against rat infected experimentally with liver fluke (Test Examples A11, B11, C11, D11); type: in vivo; parameters: key to Presence or absence of fluke egg in fecal matter On 21st day after the last administration: +: indicates detection of fluke egg; -: indicates no detection
[11] = test system: fowl roundworm (Ascaridia galli); assay: Anthelmintic test in chickens artificially infected with fowl roundworm, single oral dose in gelatin capsule, worm bodies counted within 48 hours (Test Examples A1, B1, C1, D1); type: in vivo; details: Ascaridia galli, po, 48 h, read-out: Anthelmintic effect after 48 hours
Procedure, shortened: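 Anthelmintic percentage derived from counts of worms passed within 48 h plus worms left in the intestine after killing at 48 h. Infection confirmed by fecal examination in three-bird groups; compound given orally once in gelatin capsules at 10/20 (A1, B1), 30/50 (C1) or 15/30 (D1) mg/kg.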

[12] = test system: Trichostrongylidae (Trichostrongylus colubriformis); assay: Anthelmintic test against sheep Trichostrongylidae in naturally infected sheep, E.P.G. on 7th day (Test Examples A7, B7, C7, D7); type: in vivo
[13] = dogs, 20 mg/Kg x 3 subcutaneously, autopsy on 10th day after the last administration, one value per dog, 20 mg/kg

With `C#CCN(OC)C(C)=O` [Compound A1, N-propargyl-N-acetyl-O-methylhydroxylamine] the inhibition in vivo at 10 ppm ([1]; po, chickens, 10 ppm added to feed, worm count on 21st day, one value per chicken) was 80 to 90%, the inhibition in vivo at 50 ppm ([1]; po, chickens, 50 ppm added to feed, worm count on 21st day, one value per chicken) was 100% and the “anthelmintic effect” value ([2]; dogs with mixed infections (Trichuris vulpis, Ancylostoma caninum, Toxocara canis; statement covers all three), one administration of 20 mg/Kg) was “marked anthelmintic effect”. For the same compound, the “Change of E.P.G. Before administration” value ([2]; dogs, 20 mg/Kg orally once, Trichuris vulpis, baseline, one value per dog, 20 mg/kg) was 3,200 E.P.G. and 2,700 E.P.G, the “Change of E.P.G. 7th day” value ([2]; dogs, 20 mg/Kg orally once, Trichuris vulpis, one value per dog) was 0 E.P.G and the “Change of E.P.G. Before administration” value ([3]; baseline, 20 mg/kg) was 4,500 E.P.G. and 7,800 E.P.G. The “Change of E.P.G. 7th day” value [3] was 0 E.P.G, the “Change of E.P.G. Before administration” value ([4]; baseline, 20 mg/kg) was 5,100 E.P.G. and 2,300 E.P.G and the “Change of E.P.G. 7th day” value [4] was 0 E.P.G. For the same compound, the “anthelmintic effect” value ([5]; dogs, one administration of 10 mg/Kg) was “marked anthelmintic effect”, the “anthelmintic effect” value ([5]; dogs, one administration of 20 mg/Kg) was “marked anthelmintic effect” and the “Change of E.P.G. 7th day” value ([6]; 15 mg/Kg orally once) was 0 E.P.G. For the same compound, the “Change of E.P.G. Before administration” value ([6]; 15 mg/Kg orally once, baseline) was 1,600 E.P.G, the “anthelmintic effect” value [6] was “marked anthelmintic effect” and the “anthelmintic effect” value ([7]; pigs infected with swine roundworm and swine whipworm (statement covers both), one administration of 20 mg/Kg) was “marked anthelmintic effect”. The “Change of E.P.G. 7th day” value ([7]; pigs, 20 mg/Kg orally once, Ascaris suum, one value per pig) was 0 E.P.G, the “Change of E.P.G. Before administration” value ([8]; baseline, 20 mg/kg) was 1,300 E.P.G. and 2,100 E.P.G and the “Change of E.P.G. 7th day” value [8] was 0 E.P.G. The inhibition in vivo at 20 mg/kg ([9]; Dirofilaria immitis, sc, 240 h, dogs, administration of 20 mg/Kg repeated three times, given as about 50% or more, read-out: anthelmintic effect against adult filaria) was ≥ 50%, the “Effect on adult filaria: Number of worms killed/Total parasites” value [9, 13] was 7/12 and 5/ 7 and the “Effect on adult filaria: Percent of worms killed” value [9, 13] was 58% and 71%. The “Number of microfilaria/20 µl On 10th day after the last administration” value ([9]; dogs, 20 mg/Kg x 3 subcutaneously, earlobe blood, one value per dog) was 0 /20 µl, the “anthelmintic effect against microfilaria (mf)” value ([9]; dogs, administration of 20 mg/Kg repeated three times) was “marked anthelmintic effect” and the “Condition of fluke body” value ([10]; rats, 50 mg/Kg x 5 orally, autopsy, liver, "Denatured" = fluke body is alive but a part of fluke body has changed, one value per rat) was “dead”. The “Presence or absence of fluke egg in fecal matter On 21st day after the last administration” value ([10]; rats, 50 mg/Kg x 5 orally, one value per rat) was “-”.

In the case of `C=CCN(OCC)C(C)=O` [Compound B8, N-allyl-N-acetyl-O-ethylhydroxylamine], the inhibition in vivo at 30 mg/kg ([11]; chickens, 30 mg/Kg orally in gelatin capsule, one value per chicken (No.1-3)) is reported as 100%, the inhibition in vivo at 50 mg/kg ([11]; chickens, 50 mg/Kg orally in gelatin capsule, one value per chicken (No.1-3)) is reported as 100% and the “Change of E.P.G. Before administration” value ([5]; dogs, 20 mg/Kg orally once, baseline, one value per dog, 20 mg/kg) is reported as 5,300 E.P.G. and 2,600 E.P.G. For the same compound, the “Change of E.P.G. 7th day” value ([5]; dogs, 20 mg/Kg orally once, one value per dog) was 0 E.P.G, the inhibition in vivo at 30 mg/kg ([9]; Dirofilaria immitis, sc, 240 h, dog, 30 mg/Kg x 3, subcutaneous injection, read-out: Effect on adult filaria: Percent of worms killed) was 58% and the inhibition in vivo at 30 mg/kg ([9]; Dirofilaria immitis, sc, 240 h, dogs, administration of 30 mg/Kg repeated three times, given as about 50% or more, read-out: anthelmintic effect against adult filaria) was ≥ 50%. For the same compound, the “Number of microfilaria/20 µl on 10th day after the last administration” value ([9]; dog, 30 mg/Kg x 3, subcutaneous injection, suspension in 1% Tween 80) was 0 /20 µl, the “Effect on adult filaria: Number of worms killed/ Total parasite” value ([9]; dog, 30 mg/Kg x 3, subcutaneous injection, 30 mg/kg) was 7/12 and 13/21 and the “anthelmintic effect against microfilaria (mf)” value ([9]; dogs, administration of 30 mg/Kg repeated three times) was “marked anthelmintic effect”. The “Condition of fluke body” value ([10]; rat, 50 mg/Kg x 5) was “dead”, the “Presence or absence of fluke egg in fecal matter On 21st day after the last administration” value ([10]; rat, 50 mg/Kg x 5) was “-” and the “anthelmintic effect” value ([10]; rats, five administrations in a dose of 50 mg/Kg each) was “marked antihelmintic effect”. For the same compound, the “Change of E.P.G. 7th day” value ([12]; 20 mg/Kg orally once) was 0 E.P.G, the “Change of E.P.G. Before administration” value ([12]; 20 mg/Kg orally once, baseline) was 3,400 E.P.G and the “anthelmintic effect” value ([12]; one administration of 20 mg/Kg) was “marked anthelmintic effect”.

With `CC=CCON(CC=CC)C(C)=O` [Compound C10] the inhibition in vivo at 30 mg/kg ([11]; chicken, 30 mg/Kg oral in gelatin capsule, chickens No.1-3) was 80 to 90%, the inhibition in vivo at 50 mg/kg ([11]; chicken, 50 mg/Kg oral in gelatin capsule, chickens No.1-3) was 100% and the inhibition in vivo at 25 ppm ([1]; feed or water, chicken, 25 ppm in feed) was 80 to 90%. The inhibition in vivo at 50 ppm ([1]; feed or water, chicken, 50 ppm in feed) was 100%, the “Change of E.P.G. 7th day” value ([5]; dog, Strongyloides stercoralis, 30 mg/Kg oral in gelatin capsule, one administration) was 0 and the “Change of E.P.G. Before administration” value ([5]; dog, Strongyloides stercoralis, before 30 mg/Kg oral (baseline)) was 2,300 and 3,100. For the same compound, the “anthelmintic effect” value ([5]; dogs, one administration of 30 mg/Kg) was “marked anthelmintic effect”, the “anthelmintic effect” value [6] was “marked anthelmintic effect” and the “Change of E.P.G. 7th day” value ([12]; Trichostrongylus colubriformis, 20 mg/Kg oral in gelatin capsule, one administration) was 0. The “Change of E.P.G. Before administration” value ([12]; Trichostrongylus colubriformis, before 20 mg/Kg oral (baseline)) was 1,800.
